Measurements: US8481459B2, “Chemical inhibitors of ethylene biosynthesis” (Academia Sinica, priority 2010, dated 2013)

Tested on: gene expression in etiolated eto1-4 seedlings
Test: Transcriptional profiling (ATH1 GeneChip microarray) of etiolated eto1-4 seedlings
Assay type: in vivo, Arabidopsis thaliana
Conditions: ratio eto1-4 treated to eto1-4 (no treatment)
Procedure: For chemical treatments, seeds were sown on 0.5×MS agar medium supplemented with 10 μM chemicals (AVG, compounds 9393, 9370, and 7303) or DMSO (as control). Arabidopsis seeds were stratified in the dark at 4° C. for 4 days, then germinated in the dark for 3 days at 22° C. Approximately 2,000 etiolated seedlings of the wild type or eto1-4 were used to collect tissues for preparation of total RNA in each microarray experiment with Arabidopsis ATH1 GeneChip (Affymetrix). Extraction of RNA followed an established protocol (Chang, et al. (1993) Plant Mol. Biol. Rep. 11, 113-117). Total RNA (10 μg) was used to prepare biotinylated cRNA for hybridization to ATH1 GeneChip in the experiments disclosed herein. Experiments were repeated by 2 independent biological duplicates, and candidate genes present in both experiments were selected for further analysis. The MASS method was used for data analysis and normalization by all sample medium. Candidate genes were selected by the following criteria. First, genes with 1.5-fold differential expression between the wild type and eto1-4 were selected as the master gene pool, which was then used for comparison in treatments with AVG and individual exemplary compounds. Data were presented in hierarchical clustering and Venn diagram format. Agilent GeneSpring GX and Bioconductor software were used to analyze the expression profile data. Gene Ontology descriptions were generated by GeneSpring GX and further referred to the TAR GO database. Raw data are available in the GEO database (http://www.ncbi.nlm.nih.gov/geo) with Accession no. GSE20897.
The filtered and normalized expression data set from 22810 probes on the ATH1 Genechip was used for hierarchical clustering of gene expression profiles for comparison between AVG and the exemplary invention compounds in eto1-4. It was identified that 1,446 genes show at least 1.5-fold difference in expression between the WT and eto1-4 and used them as the master gene pool for clustering analysis (FIG. 7A). […] These genes likely contribute to the etiolated phenotype of eto1-4 by responding to elevated endogenous ethylene. To determine whether the exemplary compounds have specific r overlapping functions with AVG to suppress the eto1-4 phenotype, genes that are regulated by individual exemplary invention compounds and AVG for Venn diagram analysis were clustered (FIG. 7B). More than 63% of genes (356/561 for compound 9393; 389/561 for compound 9370; 399/561 for compound 7303; FIG. 7B) with expression associated with AVG were co-regulated by the exemplary invention compounds, which indicates an overlap function in suppression of the ethylene phenotype in eto1-4. […] Next genes co-regulated by all of the exemplary invention compounds and AVG were examined by performing a clustering analysis using the co-regulated genes identified in FIG. 7B: 356 (compound 9393 vs AVG), 389 (compound 9370 vs AVG) and 399 genes (compound 7303 vs AVG). It was uncovered that 276 genes were co-regulated by all of the exemplary invention compounds and AVG (FIG. 7C and Table 2). On the basis of GO descriptions generated by Gene Spring GX and TAIR database, the 276 genes were divided into subgroups related to their biological functions (Table 2). […] In addition, stress- and pathogenesis-related genes were among the co-regulated genes, possibly because ethylene is involved in both biotic and abiotic stresses.
Genes (1446 non-redundant loci) were selected by 1.5-fold differential expression between eto1-4 and WT as the master pool for analysis. These genes were used for comparison between chemical treatments by AVG and the exemplary invention compounds. The finalized 276 genes that are co-regulated by AVG and all of the exemplary invention compounds are shown. Locus ID also present in Nemhauser et al. (Nemhauser, et al. (2006) Cell 126, 467-475).

Cc1ccc(C2CC(=O)c3cnc(NC4CCCC4)nc3C2)cc1 (centres unmarked) [Compound 9370]
Signal Fold Change AT3G14850, unknown biological function: 0.20
Signal Fold Change AT3G15890 protein kinase: 1.86
Signal Fold Change AT3G16450 jacalin lectin protein: 2.54
Signal Fold Change AT3G16470 jacalin lectin protein: 5.60
Signal Fold Change AT3G16690, unknown biological function: 3.80
Signal Fold Change AT3G17680, unknown biological function: 0.24
Signal Fold Change AT3G20130 cytochrome P450: 1.73
Signal Fold Change AT3G21770 peroxidase 30: 2.01
Signal Fold Change AT3G22620 lipid transfer protein: 2.14
Signal Fold Change AT3G23150 ethylene receptor, putative (ETR2): 0.16
Signal Fold Change AT3G23800, unknown biological function: 0.40
Signal Fold Change AT3G24670, unknown biological function: 0.32
Signal Fold Change AT3G25710 bHLH protein: 2.47
Signal Fold Change AT3G25730 AP2-containing transcription factor: 0.30
Signal Fold Change AT3G25980 mitotic spindle checkpoint protein: 2.23
Signal Fold Change AT3G27580 protein kinase: 0.56
Signal Fold Change AT3G28290, unknown biological function: 0.18
Signal Fold Change AT3G29250 short-chain dehydrogenase: 5.52
Signal Fold Change AT3G30775 proline oxidase, mitochondrial: 3.13
Signal Fold Change AT3G43270 pectinesterase protein: 0.20
Signal Fold Change AT3G44820, response to light stimulus, phototropic-responsive NPH3 protein: 2.56
Signal Fold Change AT3G44990 endo-xyloglucan transferase: 0.22
Signal Fold Change AT3G45710 proton-dependent oligopeptide transport (POT) protein: 2.40
Signal Fold Change AT3G46130 myb transcription factor (MYB48): 2.15
Signal Fold Change AT3G46700 UDP-glucosyl transferase: 5.15
Signal Fold Change AT3G47210, unknown biological function: 2.73
Signal Fold Change AT3G47250, unknown biological function: 4.89
Signal Fold Change AT3G49780 phytosulfokines 3 (PSK3): 7.46
Signal Fold Change AT3G50660 steroid 22-alpha-hydroxylase: 4.00
Signal Fold Change AT3G51410, unknown biological function: 0.32
Signal Fold Change AT3G51970, unknown biological function: 2.88
Signal Fold Change AT3G52180 protein tyrosine phosphatase: 0.25
Signal Fold Change AT3G52920 expressed protein (defense response): 2.82
Signal Fold Change AT3G53540, unknown biological function: 0.35
Signal Fold Change AT3G56480, unknown biological function: 2.39
Signal Fold Change AT3G58710 WRKY transcription factor: 2.65
Signal Fold Change AT3G59370, unknown biological function: 2.99
Signal Fold Change AT3G59710 short-chain dehydrogenase: 0.38
Signal Fold Change AT3G59900, unknown biological function: 0.39
Signal Fold Change AT3G60520, unknown biological function: 0.28
Signal Fold Change AT3G61160 shaggy-related protein kinase beta/ASK-beta (ASK2): 3.86
Signal Fold Change AT4G00730 anthocyaninless2: 0.54
Signal Fold Change AT4G01410, unknown biological function: 0.27
Signal Fold Change AT4G03140 short-chain dehydrogenase: 0.38
Signal Fold Change AT4G08300, unknown biological function: 3.20
Signal Fold Change AT4G09570 calcium-dependent protein kinase: 0.35
Signal Fold Change AT4G10910, unknown biological function: 4.65
Signal Fold Change AT4G11190 disease resistance-responsive protein: 9.98
Signal Fold Change AT4G11280 ACC synthase 6: 2.29
Signal Fold Change AT4G11310 cysteine proteinase: 9.04
Signal Fold Change AT4G12080, unknown biological function: 2.05
Signal Fold Change AT4G12410 auxin-responsive protein: 2.89
Signal Fold Change AT4G12480 lipid transfer protein: 0.17
Signal Fold Change AT4G13210, unknown biological function: 0.25
Signal Fold Change AT4G15550 UDP-glucose:indole-3-acetate beta-D-glucosyltransferase: 0.28
Signal Fold Change AT4G15920, unknown biological function: 17.08
Signal Fold Change AT4G17220 expressed protein (cytoskeleton organization and biogenesis): 2.35
Signal Fold Change AT4G18340 glycosyl hydrolase: 2.70
Signal Fold Change AT4G23410 senescence-associated protein: 2.34
Signal Fold Change AT4G25780, unknown biological function: 11.52
Signal Fold Change AT4G26010 peroxidase: 0.38
Signal Fold Change AT4G28085, unknown biological function: 4.84
Signal Fold Change AT4G31000, unknown biological function: 0.61
Signal Fold Change AT4G32920, unknown biological function: 2.35
Signal Fold Change AT4G34560, unknown biological function: 1.85
Signal Fold Change AT4G34760 auxin-responsive protein: 0.15
Signal Fold Change AT4G35060 copper chaperone: 3.80
Signal Fold Change AT4G35150, unknown biological function: 0.28
Signal Fold Change AT4G36520, unknown biological function: 2.70
Signal Fold Change AT4G37220 stress-responsive protein: 6.12
Signal Fold Change AT4G38690, signal transduction, 1-phosphatidylinositol: 3.04
Signal Fold Change AT4G39210 ADP-glucose pyrophosphorylase: 0.28
Signal Fold Change AT4G39800 inositol-3-phosphate synthase isozyme 1: 2.08
Signal Fold Change AT4G39840, unknown biological function: 0.29
Signal Fold Change AT5G01210, unknown biological function: 0.31
Signal Fold Change AT5G01300, unknown biological function: 1.40
Signal Fold Change AT5G02260, cell wall organization and biogenesis, expansin (EXP9): 0.10
Signal Fold Change AT5G02540 short-chain dehydrogenase: 0.12
Signal Fold Change AT5G03160 DNAJ heat shock N-terminal domain-containing protein: 2.78
Signal Fold Change AT5G04080, unknown biological function: 2.55
Signal Fold Change AT5G05180, unknown biological function: 1.95
Signal Fold Change AT5G06200, unknown biological function: 2.10
Signal Fold Change AT5G08240, unknown biological function: 2.31
Signal Fold Change AT5G08260 serine carboxypeptidase S10 protein: 0.38
Signal Fold Change AT5G08370 alpha-galactosidase: 4.06
Signal Fold Change AT5G09980 expressed protein (defense response): 0.38
Signal Fold Change AT5G10720 sensory transduction histidine kinase: 0.32
Signal Fold Change AT5G11540, unknown biological function: 5.68
Signal Fold Change AT5G12170, response to cadmium ion, expressed protein: 0.34
Signal Fold Change AT5G13870 endo-xyloglucan transferase: 0.11
Signal Fold Change AT5G13910 AP2/EREBP-like transcription factor: 0.39
Signal Fold Change AT5G14780 formate dehydrogenase: 0.35
Signal Fold Change AT5G14920 gibberellin-regulated protein: 0.31
Signal Fold Change AT5G15290, unknown biological function: 2.42
Signal Fold Change AT5G15530 biotin carboxyl carrier protein 2: 0.38
Signal Fold Change AT5G15830 bZIP transcription factor protein: 4.18
Signal Fold Change AT5G18470, unknown biological function: 0.18
Signal Fold Change AT5G18670 beta-amylase: 0.40
Signal Fold Change AT5G18860, unknown biological function: 2.08
Signal Fold Change AT5G18970, unknown biological function: 3.58
Signal Fold Change AT5G19890 peroxidase: 0.08
Signal Fold Change AT5G19930, unknown biological function: 1.64
Signal Fold Change AT5G20410 monogalactosyldiacylglycerol synthase: 3.75
Signal Fold Change AT5G22310, unknown biological function: 0.31
Signal Fold Change AT5G22860 serine carboxypeptidase S28 protein: 3.54
Signal Fold Change AT5G23750, unknown biological function: 4.16
Signal Fold Change AT5G24870, unknown biological function: 2.17
Signal Fold Change AT5G25140 cytochrome P450: 5.04
Signal Fold Change AT5G25160 zinc finger (C2H2 type) protein: 3.03
Signal Fold Change AT5G25190 ethylene-responsive element-binding protein: 0.40
Signal Fold Change AT5G34940, unknown biological function: 0.46
Signal Fold Change AT5G37300, unknown biological function: 3.03
Signal Fold Change AT5G38930, unknown biological function: 0.24
Signal Fold Change AT5G39860 bHLH protein: 3.46
Signal Fold Change AT5G41900 hydrolase: 3.08
Signal Fold Change AT5G44410, unknown biological function: 3.27
Signal Fold Change AT5G44580, unknown biological function: 0.21
Signal Fold Change AT5G46890 lipid transfer protein: 3.94
Signal Fold Change AT5G47240, unknown biological function: 4.32
Signal Fold Change AT5G47330 palmitoyl protein thioesterase protein: 3.02
Signal Fold Change AT5G47450 major intrinsic protein: 2.71
Signal Fold Change AT5G47950, unknown biological function: 2.55
Signal Fold Change AT5G48490 lipid transfer protein: 12.97
Signal Fold Change AT5G48900, unknown biological function: 0.48
Signal Fold Change AT5G49900, unknown biological function: 2.96
Signal Fold Change AT5G50720 ABA-responsive protein (HVA22e): 2.65
Signal Fold Change AT5G52120 SKP1 interacting partner 3 protein: 7.26
Signal Fold Change AT5G53190, unknown biological function: 6.92
Signal Fold Change AT5G53830, unknown biological function: 0.39
Signal Fold Change AT5G56320, cell wall organization and biogenesis, expansin (EXP14): 2.90
Signal Fold Change AT5G58660, unknown biological function: 0.27
Signal Fold Change AT5G59540 oxidoreductase: 0.40
Signal Fold Change AT5G63450 cytochrome P450: 8.71
Signal Fold Change AT5G63650 serine/threonine protein kinase: 0.33
Signal Fold Change AT5G65970 seven transmembrane MLO protein: 2.88
Signal Fold Change AT5G66310, microtubule-based movement, kinesin motor protein: 0.45
Signal Fold Change AT5G66400 dehydrin (RAB18): 0.81
Signal Fold Change AT5G66440, unknown biological function: 0.31
Signal Fold Change AT5G66460 (1-4)-beta-mannan endohydrolase: 0.42
Signal Fold Change AT5G66780, unknown biological function: 0.86
